Values joined by “and” are separate entries in the source; they are usually repeats but may differ in a detail not shown here. Equal values may be shown once.
These molecules were tested on substrate oligonucleotide used in the EN activity assay (assay: not given). Conditions: not given.
Format: binding
Parameters: key to Binding Detected? (Y/N): Binding Detected? (Y/N); Binding Detected? (Y/N)
`Cc1ccc(NC(=O)CSc2nc(-c3ccccc3F)nc3c2Cc2c(CO)cnc(C)c2O3)cc1` [AD28] was tested, and the “Binding Detected? (Y/N)” value was “N”.

What follows are molecules tested against T1, APE1 (Homo sapiens, UniProt P27695) (assay: APE1 fluorescent oligonucleotide activity assay (abasic site substrate)). Conditions: compound at 25 μM; Replicate 1.
T1 construct: purchased New England Biolabs (NEB) M0282S
Format: biochemical
For `Cc1ccc(NC(=O)CSc2nc(-c3ccccc3F)nc3c2Cc2c(CO)cnc(C)c2O3)cc1` [AD28], the “APE1 percent activity, Replicate 1” value was 117.021%.

Same assay, conditions: compound at 25 μM; Replicate 2
With `Cc1ccc(NC(=O)CSc2nc(-c3ccccc3F)nc3c2Cc2c(CO)cnc(C)c2O3)cc1` [AD28] the “APE1 percent activity, Replicate 2” value was 119.222%.

Same assay, conditions: compound at 25 μM; Replicate 3
For `Cc1ccc(NC(=O)CSc2nc(-c3ccccc3F)nc3c2Cc2c(CO)cnc(C)c2O3)cc1` [AD28], the “APE1 percent activity, Replicate 3” value was 118.718%.

Same assay, conditions: compound at 25 μM; average of 3 replicates
With `Cc1ccc(NC(=O)CSc2nc(-c3ccccc3F)nc3c2Cc2c(CO)cnc(C)c2O3)cc1` [AD28] the “APE1 percent activity, average” value was 118.32%.

Same assay, conditions: inhibitors at 25 μM; relative to 0 μM inhibitor control; mean ± s.d., 3 independent experiments; read-out: APE1 activity (%)
`Cc1ccc(NC(=O)CSc2nc(-c3ccccc3F)nc3c2Cc2c(CO)cnc(C)c2O3)cc1` [AD28] was tested, and the activity at 25 µM was 118 ± 1.2%.

What follows are molecules tested against L1 EN (LINE-1 retrotransposon endonuclease domain) (Homo sapiens, UniProt O00370, N5T) (assay: Fluorescent oligonucleotide EN nicking activity assay). Conditions: not given.
Sequence of L1 EN (LINE-1 retrotransposon endonuclease domain) (O00370 1-239 N5T): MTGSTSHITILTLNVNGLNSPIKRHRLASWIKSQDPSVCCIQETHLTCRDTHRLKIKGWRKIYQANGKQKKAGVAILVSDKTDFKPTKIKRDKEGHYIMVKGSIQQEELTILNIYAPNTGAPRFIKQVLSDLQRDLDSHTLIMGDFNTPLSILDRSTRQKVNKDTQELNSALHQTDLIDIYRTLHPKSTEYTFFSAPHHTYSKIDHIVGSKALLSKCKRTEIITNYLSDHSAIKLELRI
Format: biochemical
For `NC[C@H]1CC[C@H](C(=O)O)CC1` [tranexamic acid, reference compound], the “IC50 in the fluorescent oligonucleotide assay” value was “does not inhibit sufficiently to calculate an”.

Same assay, conditions: 25 mM, highest soluble concentration
`NC[C@H]1CC[C@H](C(=O)O)CC1` [tranexamic acid, reference compound] gave an inhibition at 25000 µM of ~75%.

Same assay, conditions: [Inhibitor] 1 μM; technical replicates 1-3, Fig. 2b source data; 1 µM
In the case of `Cc1ccc(NC(=O)CSc2nc(-c3ccccc3F)nc3c2Cc2c(CO)cnc(C)c2O3)cc1` [AD28], the “EN activity, percent of no inhibitor control” value is reported as 96.841% and 106.468%.

Same assay, conditions: [Inhibitor] 1 μM; technical replicates 1-3, Fig. 2b source data; read-out: EN activity, percent of no inhibitor control
With `Cc1ccc(NC(=O)CSc2nc(-c3ccccc3F)nc3c2Cc2c(CO)cnc(C)c2O3)cc1` [AD28] the remaining activity at 1 µM was 95.4%.

Same assay, conditions: [Inhibitor] 5 μM; technical replicates 1-3, Fig. 2b source data; 5 µM
For `Cc1ccc(NC(=O)CSc2nc(-c3ccccc3F)nc3c2Cc2c(CO)cnc(C)c2O3)cc1` [AD28], the “EN activity, percent of no inhibitor control” value was 89.9598% and 81.1542%.

Same assay, conditions: [Inhibitor] 5 μM; technical replicates 1-3, Fig. 2b source data; read-out: EN activity, percent of no inhibitor control
`Cc1ccc(NC(=O)CSc2nc(-c3ccccc3F)nc3c2Cc2c(CO)cnc(C)c2O3)cc1` [AD28] was tested, and the remaining activity at 5 µM was 92%.

Same assay, conditions: [Inhibitor] 20 μM; technical replicates 1-3, Fig. 2b source data; 20 µM
With `Cc1ccc(NC(=O)CSc2nc(-c3ccccc3F)nc3c2Cc2c(CO)cnc(C)c2O3)cc1` [AD28] the “EN activity, percent of no inhibitor control” value was 104.354% and 99.6299%.

Same assay, conditions: [Inhibitor] 20 μM; technical replicates 1-3, Fig. 2b source data; read-out: EN activity, percent of no inhibitor control
For `Cc1ccc(NC(=O)CSc2nc(-c3ccccc3F)nc3c2Cc2c(CO)cnc(C)c2O3)cc1` [AD28], the remaining activity at 20 µM was 87.7%.

Same assay, conditions: [Inhibitor] 50 μM; technical replicates 1-3, Fig. 2b source data; 50 µM
With `Cc1ccc(NC(=O)CSc2nc(-c3ccccc3F)nc3c2Cc2c(CO)cnc(C)c2O3)cc1` [AD28] the “EN activity, percent of no inhibitor control” value was 92.3894% and 103.331%.

Same assay, conditions: [Inhibitor] 50 μM; technical replicates 1-3, Fig. 2b source data; read-out: EN activity, percent of no inhibitor control
With `Cc1ccc(NC(=O)CSc2nc(-c3ccccc3F)nc3c2Cc2c(CO)cnc(C)c2O3)cc1` [AD28] the remaining activity at 50 µM was 89.2%.

Same assay, conditions: [Inhibitor] 100 μM; technical replicates 1-3, Fig. 2b source data; 100 µM
In the case of `Cc1ccc(NC(=O)CSc2nc(-c3ccccc3F)nc3c2Cc2c(CO)cnc(C)c2O3)cc1` [AD28], the “EN activity, percent of no inhibitor control” value is reported as 86.184% and 81.609%.

Same assay, conditions: [Inhibitor] 100 μM; technical replicates 1-3, Fig. 2b source data; read-out: EN activity, percent of no inhibitor control
Molecule `Cc1ccc(NC(=O)CSc2nc(-c3ccccc3F)nc3c2Cc2c(CO)cnc(C)c2O3)cc1` [AD28] has a remaining activity at 100 µM of 79.1%.

Same assay, conditions: [Inhibitor] 250 μM; technical replicates 1-3, Fig. 2b source data; 250 µM
`Cc1ccc(NC(=O)CSc2nc(-c3ccccc3F)nc3c2Cc2c(CO)cnc(C)c2O3)cc1` [AD28] was tested, and the “EN activity, percent of no inhibitor control” value was 59.9195% and 84.2317% and 41.5158%.

Same assay, conditions: [Inhibitor] 500 μM; technical replicates 1-3, Fig. 2b source data; 500 µM
In the case of `Cc1ccc(NC(=O)CSc2nc(-c3ccccc3F)nc3c2Cc2c(CO)cnc(C)c2O3)cc1` [AD28], the “EN activity, percent of no inhibitor control” value is reported as 4.092% and 40.0005% and 32.2238%.

Same assay, conditions: [Inhibitor] 750 μM; technical replicates 1-3, Fig. 2b source data; 750 µM
`Cc1ccc(NC(=O)CSc2nc(-c3ccccc3F)nc3c2Cc2c(CO)cnc(C)c2O3)cc1` [AD28] was tested, and the “EN activity, percent of no inhibitor control” value was 45.0869% and 49.2787%.

Same assay, conditions: [Inhibitor] 750 μM; technical replicates 1-3, Fig. 2b source data; read-out: EN activity, percent of no inhibitor control
Molecule `Cc1ccc(NC(=O)CSc2nc(-c3ccccc3F)nc3c2Cc2c(CO)cnc(C)c2O3)cc1` [AD28] has a remaining activity at 750 µM of 52.5%.

Same assay, conditions: [Inhibitor] 1000 μM; technical replicates 1-3, Fig. 2b source data; 1000 µM
`Cc1ccc(NC(=O)CSc2nc(-c3ccccc3F)nc3c2Cc2c(CO)cnc(C)c2O3)cc1` [AD28] was tested, and the “EN activity, percent of no inhibitor control” value was 23.297% and 19.7447%.

Same assay, conditions: [Inhibitor] 1000 μM; technical replicates 1-3, Fig. 2b source data; read-out: EN activity, percent of no inhibitor control
`Cc1ccc(NC(=O)CSc2nc(-c3ccccc3F)nc3c2Cc2c(CO)cnc(C)c2O3)cc1` [AD28] gave a remaining activity at 1000 µM of 37.6%.

— publication PMC11078990, “Identification and characterization of small molecule inhibitors of the LINE-1 retrotransposon endonuclease” (Nature Communications, 2024)
